Experimental data: patent US20150258101A1 (Proximagen Limited, priority 2014, published 2015)

Tests used:
[1] = molecular target: T1, purified recombinantly expressed human SSAO (Homo sapiens, UniProt Q16853); assay: SSAO enzyme inhibition assay (benzylamine substrate; hydrogen peroxide/HRP-coupled or 14C aldehyde detection); type: biochemical; settings: SSAO inhibitory activity, RT
T1 construct: made in house
T1 sequence (Q16853 1-763): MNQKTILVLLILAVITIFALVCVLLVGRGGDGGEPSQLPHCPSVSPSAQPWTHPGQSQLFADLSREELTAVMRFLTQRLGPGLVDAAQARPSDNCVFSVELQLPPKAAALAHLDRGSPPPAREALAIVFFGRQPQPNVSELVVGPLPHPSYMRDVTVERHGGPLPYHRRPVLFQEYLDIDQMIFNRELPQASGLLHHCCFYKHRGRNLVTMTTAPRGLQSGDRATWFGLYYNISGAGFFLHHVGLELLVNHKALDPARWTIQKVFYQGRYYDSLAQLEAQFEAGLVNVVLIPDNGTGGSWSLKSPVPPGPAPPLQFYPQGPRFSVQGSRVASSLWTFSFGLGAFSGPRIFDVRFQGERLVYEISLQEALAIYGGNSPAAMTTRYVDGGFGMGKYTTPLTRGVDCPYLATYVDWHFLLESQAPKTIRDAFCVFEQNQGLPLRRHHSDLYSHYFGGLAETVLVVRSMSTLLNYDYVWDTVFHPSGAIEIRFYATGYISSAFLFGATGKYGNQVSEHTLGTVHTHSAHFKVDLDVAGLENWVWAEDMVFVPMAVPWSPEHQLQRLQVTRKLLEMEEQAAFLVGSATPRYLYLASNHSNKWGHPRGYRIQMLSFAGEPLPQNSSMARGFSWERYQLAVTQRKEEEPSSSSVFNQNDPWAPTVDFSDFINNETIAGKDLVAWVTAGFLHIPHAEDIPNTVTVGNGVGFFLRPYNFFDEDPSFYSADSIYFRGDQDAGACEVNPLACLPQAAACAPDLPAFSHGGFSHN
Outline: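 IC50 values came from a four-parameter logistic fit of % signal decrease versus DMSO control, with no-enzyme background subtracted. Two read-outs were used with human recombinant SSAO after ~15 min compound pre-incubation at RT. In the H2O2/HRP-Amplex read-out, enzyme was 1 ug/ml and benzylamine 100 uM (pH 7.4 phosphate), with resorufin fluorescence followed 1-2 h. In the 14C-benzaldehyde read-out (PBS), enzyme was 10 ug/ml and benzylamine 40 uM, run 1 h then acid-stopped.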

[2] = molecular target: T2, human ether a go-go related gene (hERG) K+ channel (Homo sapiens, UniProt Q12809); assay: hERG assay, IonWorks patch clamp electrophysiology; type: cell-based; settings: Chinese Hamster Lung cell line stably expressing hERG; max assay concentration 11 uM
T2 construct: a Chinese Hamster Lung cell line stably expressing the full length hERG channel; expressed in transfected cells; host or cells: Chinese Hamster Lung cell line
T2 sequence (Q12809 whole entry): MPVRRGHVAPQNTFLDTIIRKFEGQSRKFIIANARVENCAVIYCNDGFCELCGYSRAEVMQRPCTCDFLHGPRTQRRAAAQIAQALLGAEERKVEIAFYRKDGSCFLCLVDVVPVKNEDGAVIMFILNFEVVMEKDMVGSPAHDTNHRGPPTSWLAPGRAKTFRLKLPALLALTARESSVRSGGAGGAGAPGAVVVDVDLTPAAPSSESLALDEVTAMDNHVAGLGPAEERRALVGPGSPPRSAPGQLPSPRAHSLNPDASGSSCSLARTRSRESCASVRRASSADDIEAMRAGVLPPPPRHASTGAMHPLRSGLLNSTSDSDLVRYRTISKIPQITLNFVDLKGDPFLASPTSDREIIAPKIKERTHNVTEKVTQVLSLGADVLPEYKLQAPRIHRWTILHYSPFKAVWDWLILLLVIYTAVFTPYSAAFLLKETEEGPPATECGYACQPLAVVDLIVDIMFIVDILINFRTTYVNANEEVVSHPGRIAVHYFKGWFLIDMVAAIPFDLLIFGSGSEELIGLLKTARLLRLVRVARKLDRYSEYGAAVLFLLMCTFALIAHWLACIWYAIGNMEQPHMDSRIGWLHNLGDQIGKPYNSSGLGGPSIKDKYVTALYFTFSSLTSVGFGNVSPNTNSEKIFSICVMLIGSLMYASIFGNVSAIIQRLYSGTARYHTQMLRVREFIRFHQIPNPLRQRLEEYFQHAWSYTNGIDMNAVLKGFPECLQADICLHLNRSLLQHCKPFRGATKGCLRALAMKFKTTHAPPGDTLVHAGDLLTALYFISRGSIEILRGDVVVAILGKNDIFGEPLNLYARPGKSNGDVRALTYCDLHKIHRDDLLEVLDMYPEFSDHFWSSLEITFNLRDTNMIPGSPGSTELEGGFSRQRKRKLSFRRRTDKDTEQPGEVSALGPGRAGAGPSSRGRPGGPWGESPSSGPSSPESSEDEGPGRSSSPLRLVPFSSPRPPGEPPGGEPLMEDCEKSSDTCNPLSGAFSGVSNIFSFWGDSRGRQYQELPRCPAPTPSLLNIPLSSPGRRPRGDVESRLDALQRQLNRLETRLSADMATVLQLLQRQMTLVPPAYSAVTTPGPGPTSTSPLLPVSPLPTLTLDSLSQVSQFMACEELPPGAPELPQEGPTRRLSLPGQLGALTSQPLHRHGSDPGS
Experimental: Compounds of the invention were tested for inhibition of the human ether a go-go related gene (hERG) K^+ channel using IonWorks patch clamp electrophysiology. 8 Point concentration-response curves were generated on two occasions using 3-fold serial dilutions from the maximum assay concentration (11 uM). Electrophysiological recordings were made from a Chinese Hamster Lung cell line stably expressing the full length hERG channel. Single cell ion currents were measured in the perforated patch clamp configuration (100 ug/mL amphoterocin) at room temperature using an IonWorks Quattro instrument. The internal solution contained 140 mM KCl, 1 mM MgCl2, 1 mM EGTA and 20 mM HEPES and was buffered to pH 7.3. The external solution contained 138 mM NaCl, 2.7 mM KCl, 0.9 mM CaCl2, 0.5 mM MgCl2, 8 mM Na2HPO4 and 1.5 mM KH2PO4, and was buffered to pH 7.3. […] This sequence was repeated 5 times at a frequency of 0.25 Hz. Currents were measured from the tail step at the 5th pulse, and referenced to the holding current. Compounds were incubated for 6-7 min prior to a second measurement of the hERG signal using an identical pulse train. […] A control compound (quinidine) was used (see Table 20 below).

Compound	IC50 [1] [nM]	IC50 [2] [nM]
Cc1ccc(-n2c(-c3cnc(N4CCOCC4)nc3)nc3ccncc32)c(F)c1 [Example 53, 4-{5-[3-(2-Fluoro-4-methylphenyl)-3H-imidazo[4,5-c]pyridin-2-yl]pyrimidin-2-yl}morpholine]	200 to 1200	> 10000
Fc1cnccc1-c1cc2ccncc2n1-c1ccc(Cl)cc1 [Example 152, 4-[1-(4-Chlorophenyl)-1H-pyrrolo[2,3-c]pyridin-2-yl]-3-fluoropyridine]	200 to 1200	1000 to 10000
c1ccc(-n2c(-c3cnc(N4CCOCC4)nc3)nc3ccncc32)cc1 [Example 95, 4-(5-{3-Phenyl-3H-imidazo[4,5-c]pyridin-2-yl}pyrimidin-2-yl)morpholine]	50 to 200	> 10000
Fc1cc(Cl)ccc1-n1c(-c2cnc(N3CCOCC3)nc2)nc2ccncc21 [Example 77, 4-{5-[3-(4-Chloro-2-fluorophenyl)-3H-imidazo[4,5-c]pyridin-2-yl]pyrimidin-2-yl}morpholine]	200 to 1200	> 10000
Nc1ccc(-c2nc3ccncc3n2-c2ccc(Cl)cc2)cn1 [Example 110, 5-[3-(4-Chlorophenyl)-3H-imidazo[4,5-c]pyridin-2-yl]pyridin-2-amine]	200 to 1200	> 10000
O=c1cc(-c2cc3ccncc3n2-c2ccc(Cl)cc2)cc[nH]1 [Example 142, 4-[1-(4-Chlorophenyl)-1H-pyrrolo[2,3-c]pyridin-2-yl]-1,2-dihydropyridin-2-one]	50 to 200	1000 to 10000
Cc1ccc(-n2c(-c3ccc(N4CCOCC4)nc3)nc3ccncc32)cn1 [Example 64, 4-{5-[3-(6-Methylpyridin-3-yl)-3H-imidazo[4,5-c]pyridin-2-yl]pyridin-2-yl}morpholine]	200 to 1200	> 10000
Fc1ccc(-n2c(-c3ccc(N4CCOCC4)nc3)nc3ccncc32)cc1 [Example 54, 4-{5-[3-(4-Fluorophenyl)-3H-imidazo[4,5-c]pyridin-2-yl]pyridin-2-yl}morpholine]	200 to 1200	> 10000
O=C1CN(c2ncc(-c3nc4ccncc4n3-c3ccc(F)cc3)cn2)CCN1 [Example 12, 4-{5-[3-(4-Fluorophenyl)-3H-imidazo[4,5-c]pyridin-2-yl]pyrimidin-2-yl}piperazin-2-one]	50 to 200	> 10000
Cc1ccc(-n2c(-c3cnc(N4CCOCC4)nc3)nc3ccncc32)cc1 [Example 57, 4-{5-[3-(4-Methylphenyl)-3H-imidazo[4,5-c]pyridin-2-yl]pyrimidin-2-yl}morpholine]	50 to 200	> 10000
Clc1ccc(-n2c(-c3cnc(N4CCOCC4)nc3)nc3ccncc32)cc1 [Example 51, 4-{5-[3-(4-Chlorophenyl)-3H-imidazo[4,5-c]pyridin-2-yl]pyrimidin-2-yl}morpholine]	< 50	1000 to 10000
COCCN(C)c1ncc(-c2nc3ccncc3n2-c2ccc(C)cc2)cn1 [Example 117, N-(2-Methoxyethyl)-N-methyl-5-[3-(4-methylphenyl)-3H-imidazo[4,5-c]pyridin-2-yl]pyrimidin-2-amine]	200 to 1200	> 10000
Clc1ccc(-n2c(-c3cnc(N4CCOCC4)nc3)cc3ccncc32)cc1 [Example 127, 4-{5-[1-(4-Chlorophenyl)-1H-pyrrolo[2,3-c]pyridin-2-yl]pyrimidin-2-yl}morpholine]	< 50	100 to 1000
Clc1ccc(-n2c(-c3ccc(CN4CCOCC4)nc3)nc3ccncc32)cc1 [Example 3, 4-({5-[3-(4-Chlorophenyl)-3H-imidazo[4,5-c]pyridin-2-yl]pyridin-2-yl}methyl) morpholine]	50 to 200	> 10000
Clc1ccc(-n2c(-c3cnc(NC4CCOCC4)nc3)cc3ccncc32)cc1 [Example 139, 5-[1-(4-Chlorophenyl)-1H-pyrrolo[2,3-c]pyridin-2-yl]-N-(oxan-4-yl)pyrimidin-2-amine]	< 50	100 to 1000
O=C1CN(c2ncc(-c3cc4ccncc4n3-c3ccc(Cl)cc3)cn2)CCN1 [Example 128, 4-{5-[1-(4-Chlorophenyl)-1H-pyrrolo[2,3-c]pyridin-2-yl]pyrimidin-2-yl}piperazin-2-one]	< 50	> 10000
Cc1ccc(-n2c(-c3ccc(N4CCOCC4)nc3)nc3ccncc32)nc1 [Example 82, 4-{5-[3-(5-Methylpyridin-2-yl)-3H-imidazo[4,5-c]pyridin-2-yl]pyridin-2-yl}morpholine]	< 50	> 10000

Now from value to molecule, other results behind:

IC50 [1] [nM]	Compound	IC50 [2] [nM]
< 50	CS(=O)(=O)N1CCN(c2ccc(-c3nc4ccncc4n3-c3ccc(F)cc3)cn2)CC1 [Example 89, 1-{5-[3-(4-Fluorophenyl)-3H-imidazo[4,5-c]pyridin-2-yl]pyridin-2-yl}-4-methanesulfonylpiperazine]	> 10000
< 50	NC(=O)N1CCN(c2ccc(-c3nc4ccncc4n3-c3ccc(F)cc3)cn2)CC1 [Example 92, 4-{5-[3-(4-Fluorophenyl)-3H-imidazo[4,5-c]pyridin-2-yl]pyridin-2-yl}piperazine-1-carboxamide]	> 10000
< 50	Clc1ccc(-n2c(-c3ccc(CN4CCOCC4)nc3)cc3ccncc32)cc1 [Example 140, 4-({5-[1-(4-Chlorophenyl)-1H-pyrrolo[2,3-c]pyridin-2-yl]pyridin-2-yl}methyl)morpholine]	1000 to 10000
< 50	Cc1ccc(-n2c(-c3ccc(N4CCOCC4)nc3)nc3ccncc32)c(F)c1 [Example 67, 4-{5-[3-(2-Fluoro-4-methylphenyl)-3H-imidazo[4,5-c]pyridin-2-yl]pyridin-2-yl}morpholine]	1000 to 10000
< 50	Nc1cc(-c2cc3ccncc3n2-c2ccc(Cl)cc2)ccn1 [Example 147, 4-[1-(4-Chlorophenyl)-1H-pyrrolo[2,3-c]pyridin-2-yl]pyridin-2-amine]	1000 to 10000
< 50	CN1CCN(Cc2ccc(-c3nc4ccncc4n3-c3ccc(Cl)cc3)cc2)CC1 [Example 46, 1-({4-[3-(4-Chlorophenyl)-3H-imidazo[4,5-c]pyridin-2-yl]phenyl}methyl)-4-methylpiperazine; formic acid]	> 10000
< 50	Clc1ccc(-n2c(-c3ccc(N4CCNCC4)nc3)nc3ccncc32)cc1 [Example 50, 1-{5-[3-(4-Chlorophenyl)-3H-imidazo[4,5-c]pyridin-2-yl]pyridin-2-yl}piperazine]	> 10000
< 50	O=C1CN(c2ncc(-c3nc4ccncc4n3-c3ccc(Cl)cc3)cn2)CCN1 [Example 13, 4-{5-[3-(4-Chlorophenyl)-3H-imidazo[4,5-c]pyridin-2-yl]pyrimidin-2-yl}piperazin-2-one]	> 10000
< 50	Fc1ccc(-n2c(-c3cnc(N4CCOCC4)nc3)nc3ccncc32)c(F)c1 [Example 78, 4-{5-[3-(2,4-Difluorophenyl)-3H-imidazo[4,5-c]pyridin-2-yl]pyrimidin-2-yl}morpholine]	> 10000
< 50	Fc1ccc(-n2c(-c3cnc(N4CCOCC4)nc3)nc3ccncc32)cc1 [Example 52, 4-{5-[3-(4-Fluorophenyl)-3H-imidazo[4,5-c]pyridin-2-yl]pyrimidin-2-yl}morpholine]	> 10000
< 50	CC(=O)N1CCN(c2ccc(-c3nc4ccncc4n3-c3ccc(F)cc3)cn2)CC1 [Example 86, 1-(4-{5-[3-(4-Fluorophenyl)-3H-imidazo[4,5-c]pyridin-2-yl]pyridin-2-yl}piperazin-1-yl)ethan-1-one]	> 10000
